Laboratory results: patent publication US7422867B2, “Methods of identifying compounds that modulate IL-4 receptor mediated IgE synthesis utilizing a CLLD8 protein” (Rigel Pharmaceuticals, Inc., priority 2002, dated 2008)

Assays:
[1] = system: IL-4 induced germline ε transcription (ε promoter reporter in A5T4 cells); experiment: Re-infection (DNA transfer) assay in naïve A5T4 reporter cells; functional profile of mutants; assay type: cell-based, human; settings: for Reporter Ratio: screening in the A5T4 reporter line, wild type and mutants
Description: The ability of peptide CL02A3 wt to inhibit germline ε transcription was confirmed in naïve cells. Briefly, Phoenix cells were transfected with a retroviral vector encoding a BFP-CL02A3 wt peptide fusion as described in WO 99/58663 and WO 97/27213. Naïve A5T4 cells were infected with the resultant virions and grown for 3 days. The infected cells were stimulated with IL-4 (60 U/mL) and, after 3 days, the cells were assessed by FACS for BFP and GFP.
A collection of CL02A3 mutants was generated by replacing single or double amino acid residues in the sequence of CL02A3 wt with a different amino acid, typically an alanine or glycine, as described in copending application Ser. No. 10/095,659, entitled Methods of Identifying Protein Targets, filed Mar. 8, 2002. The functional profiles for the mutants derived from CL02A3 wt was obtained by constructing and screening for activity in the A5T4 reporter cell line in the manner described above. The activity of each mutant at the germline ε promoter is reflected in the reporter ratio, as described above. The reporter ratios were the functional values that were used to develop the functional profiles.
TABLE 2 depicts the amino acid sequences (the dual alanine mutations are underlined) of the mutants tested and the measured reporter ratios when screening in the A5T4 reporter line.
Comparison of the interaction and functional profiles was performed by categorizing the mutants of CL02A3 based on the functional and interaction assays. Based on the reporter ratio, described in panel C of FIG. 4, each mutant was categorized into one of four functional categories: (1) reduction of function (ROF); (2) loss of function (LOF); (3) increase of function (IOF) or (4) functionally neutral (N), as compared to the activity of the wild type peptide, here CL02A3 wt. As mentioned previously, cells expressing a peptide that inhibits germline ε transcription have reporter ratios of ≧1.1. Cells expressing a loss of function mutant have a reporter ratio of […]. […] Functionally neutral mutants have reporter ratios that fall within ±50% of that of the CL02A3 wt peptide. The % increase or decrease in reporter ratio is calculated after subtracting 1.0 from the individual ratios. Using these criteria, peptides CL02A3LG (SEQ ID NO:2), CL02A3TP (SEQ ID NO:4), and CL02A3EQ (SEQ ID NO:5) were designated as IOF mutants, peptide CL02A3LGW (SEQ ID NO:3), CL02A3HH (SEQ ID NO:8), CL02A3PW (SEQ ID NO:9) were designated as ROF mutants, peptides CL02A3HG (SEQ ID NO:6), and CL02A3GC (SEQ ID NO:7) were designated as neutral, and peptide CL02A3AM (SEQ ID NO:10) was designated as a LOF mutant.

[2] = target: T1, human CLLD8 protein (hCLLD8) (Homo sapiens, UniProt Q96T68, E117G/V473M); experiment: β-galactosidase yeast two hybrid (YTH) interaction assay; assay type: binding
T1 construct: expressed in transfected cells; prey cDNA came from a library of the A5T4 (BJAB-derived human B-cell) reporter line
T1 sequence (Q96T68 1-719 E117G/V473M): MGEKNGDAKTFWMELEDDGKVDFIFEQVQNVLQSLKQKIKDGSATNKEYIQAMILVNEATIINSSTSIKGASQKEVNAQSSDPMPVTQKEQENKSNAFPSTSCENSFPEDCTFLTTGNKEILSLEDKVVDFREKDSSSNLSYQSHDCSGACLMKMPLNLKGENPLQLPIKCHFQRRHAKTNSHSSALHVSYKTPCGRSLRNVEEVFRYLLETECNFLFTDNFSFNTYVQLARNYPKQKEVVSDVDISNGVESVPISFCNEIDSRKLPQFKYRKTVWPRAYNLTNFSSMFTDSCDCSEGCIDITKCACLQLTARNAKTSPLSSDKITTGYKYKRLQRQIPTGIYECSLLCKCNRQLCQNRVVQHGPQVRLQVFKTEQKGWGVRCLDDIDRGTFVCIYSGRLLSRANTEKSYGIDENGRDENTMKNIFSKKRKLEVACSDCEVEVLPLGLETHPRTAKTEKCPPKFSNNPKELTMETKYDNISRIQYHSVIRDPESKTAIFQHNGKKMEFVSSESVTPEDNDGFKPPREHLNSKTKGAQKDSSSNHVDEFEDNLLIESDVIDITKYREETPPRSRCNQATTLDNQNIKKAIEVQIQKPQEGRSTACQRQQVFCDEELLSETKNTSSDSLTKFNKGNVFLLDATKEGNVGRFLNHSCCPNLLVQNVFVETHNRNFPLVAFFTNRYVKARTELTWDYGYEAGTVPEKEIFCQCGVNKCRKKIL
Description: Potential binding partners for peptide CL02A3 wt were identified in a β-galactosidase yeast two-hybrid (YTH) assay using peptide CL02A3 wt as bait and a cDNA library constructed from the A5T4 reporter cell line as prey. Binding was assessed by β-galactosidase quantification using BetaFluor (Novagen) as a substrate. A negative interaction control (no cDNA fused downstream of the GAL4 activation domain sequence) was also run. A general outline of the YTH assay is illustrated in FIG. 5A. Following clustering, filtering to remove non-specific bait hits (e.g., GFP and BFP), singletons and clusters recognized by 10 or more cDNA baits (based upon historical YTH assays), and prioritization, 64 prey clones were identified as hits.
Potential targets identified in the YTH assay were reconfirmed as generally outlined in FIG. 6. The cDNA clones identified as hits in the YTH assay were purified and rescreened for interaction with the CL02A3 wt peptide in a YTH assay. The hit clones were also screened in a control assay for interaction with the BFP using a vector (pGBKT7) that contained only the BFP and not the CL02A3 peptide. At this stage, 51 putative target clones remained.
The interaction of CL02A3 wt peptide and its mutants with the clones identified as potential targets for the peptide CL02A3 wt was then quantified in a β-galactosidase YTH assay. The YTH assay was performed in the manner described above. A general outline of this YTH assay is illustrated in FIG. 5B. For each clone tested, an interaction profile was developed by comparing the β-galactosidase activity of each mutant to that of the wild type peptide, as described above.
The interaction of these IOF, ROF and LOF mutants with different polypeptides encoded by the putative target clones were quantified using the YTH assay described above. […]

[3] = system: endogenous germline α promoter; experiment: TAQMAN assay of endogenous germline α promoter transcription in ST486 cells; assay type: cell-based; settings: ST486 cells stimulated with TGF-β 40 ng/ml; average of 3 values
Description: The assay was similar to that described in the immediately preceding section, except that ST486 cells (ATCC # CRL-1647) engineered to express the tetracycline-regulated transactivator were infected and the infected cells were stimulated with TGF-β (40 ng/ml; Peprotech). The primers and probe, which are specific for the transcription product driven by the ST486 endogenous α promoter, were as follows (the probe was labeled at the 5′-end with Fam and at the 3′-end with Tamra): […]

Sequence | Reporter Ratio [1] | binding to human CLLD8 protein in yeast two hybrid interaction assay [2] | also measured
AMAAHHGWPWGMEQGCTPLG (peptide encoded by synthetic oligomer) [CL02A3HG] | 1.5 | – | –
AMHGAAGWPWGMEQGCTPLG (peptide encoded by synthetic oligomer) [CL02A3HH] | 1.29 | – | –
AMHGHHAAPWGMEQGCTPLG (peptide encoded by synthetic oligomer) [CL02A3GW] | – | found to bind | –
AMHGHHGWAAGMEQGCTPLG (peptide encoded by synthetic oligomer) [CL02A3PW] | 1.24 | – | –
AMHGHHGWPWGMAAGCTPLG (peptide encoded by synthetic oligomer) [CL02A3EQ] | 2.23, | – | –
AMHGHHGWPWGMEQAATPLG (peptide encoded by synthetic oligomer) [CL02A3GC] | 1.89 | – | –
AMHGHHGWPWGMEQGCAALG (peptide encoded by synthetic oligomer) [CL02A3TP] | 1.91 | – | –
AMHGHHGWPWGMEQGCTPAA (peptide encoded by synthetic oligomer) [CL02A3LG] | – | found to bind | –
AMHGHHGWPWGMEQGCTPLG (peptide encoded by synthetic oligomer) [CL02A3wt] | – | found to bind | endogenous α inhibition ratio [3]: 0.89
RAHGHHGWPWGMEQGCTPLG (peptide encoded by synthetic oligomer) [CL02A3AM] | – | – | functional category compared to CL02A3 wt, based on reporter ratio ([1]; % change calculated after subtracting 1.0 from the ratios): LOF (Cells expressing a loss of function mutant have a reporter ratio of <1.11)
